This is an account of results in ChEMBL document CHEMBL6127062, “Targeted degradation of METTL3 against acute myeloid leukemia and gastric cancer” (Eur J Med Chem, 2024).

pIC50: −log10 of the molar value. Calls of active or inactive are those of the source. The rule behind the calls is not given here.

In assay [1] the target is T1, Protein cereblon/N(6)-adenosine-methyltransferase catalytic subunit METTL3 (Homo sapiens) (UniProt Q96SW2+Q86U44). Put plainly: PROTAC activity at CRBN/METTL3 in human MOLM-13 cells assessed as induction of METTL3 degradation at 10 uM by Western blot analysis relative to control. In kind it is cell-based.
T1 sequence (Q86U44 whole entry, looked up): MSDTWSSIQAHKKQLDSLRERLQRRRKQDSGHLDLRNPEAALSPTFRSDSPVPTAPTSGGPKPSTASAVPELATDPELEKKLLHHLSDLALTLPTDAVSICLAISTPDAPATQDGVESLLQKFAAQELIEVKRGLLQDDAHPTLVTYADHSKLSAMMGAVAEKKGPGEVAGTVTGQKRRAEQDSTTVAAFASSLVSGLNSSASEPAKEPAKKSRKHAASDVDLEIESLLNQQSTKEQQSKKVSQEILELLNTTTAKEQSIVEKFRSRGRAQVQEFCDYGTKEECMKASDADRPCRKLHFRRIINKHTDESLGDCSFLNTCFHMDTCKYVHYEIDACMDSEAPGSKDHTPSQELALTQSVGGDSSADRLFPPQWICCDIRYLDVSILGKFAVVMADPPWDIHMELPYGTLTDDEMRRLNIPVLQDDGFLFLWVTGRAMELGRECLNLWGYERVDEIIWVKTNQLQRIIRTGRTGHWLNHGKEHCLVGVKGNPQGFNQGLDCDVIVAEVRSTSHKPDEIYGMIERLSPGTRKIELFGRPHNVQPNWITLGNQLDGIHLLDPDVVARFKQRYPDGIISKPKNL
T1 sequence (Q96SW2 whole entry, looked up): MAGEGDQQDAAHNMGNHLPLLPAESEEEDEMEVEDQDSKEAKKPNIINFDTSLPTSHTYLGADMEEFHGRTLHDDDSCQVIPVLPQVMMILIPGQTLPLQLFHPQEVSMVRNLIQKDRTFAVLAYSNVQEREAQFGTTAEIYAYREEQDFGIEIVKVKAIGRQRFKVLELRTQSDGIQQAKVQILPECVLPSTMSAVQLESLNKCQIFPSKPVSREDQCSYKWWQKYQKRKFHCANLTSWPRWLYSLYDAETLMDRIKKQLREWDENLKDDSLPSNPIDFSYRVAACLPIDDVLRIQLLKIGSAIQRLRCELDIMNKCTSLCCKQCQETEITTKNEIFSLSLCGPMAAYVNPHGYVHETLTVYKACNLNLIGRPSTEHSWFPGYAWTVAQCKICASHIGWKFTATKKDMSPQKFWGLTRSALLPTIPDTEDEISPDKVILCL
For assay [2], the target named is T1, Protein cereblon/N(6)-adenosine-methyltransferase catalytic subunit METTL3 (Homo sapiens). Put plainly: PROTAC activity at CRBN/METTL3 in human MOLM-13 cells assessed as induction of METTL3 degradation at 1 uM by Western blot analysis relative to control. In kind it is cell-based.
The next assay concerns AGS. Description: Anticancer activity against human AGS cells assessed as inhibition of cell growth incubated for 72 hrs by cell viability assay. In kind it is functional, cell-based.
The next assay relates to SNU-484. Put plainly: Anticancer activity against human SNU484 cells assessed as inhibition of cell growth incubated for 72 hrs by cell viability assay. The class given is functional, cell-based.
The subject of a further assay is MOLM-13. Description: Antiproliferative activity against human MOLM-13 cells assessed as inhibition of cell proliferation measured after 72 hrs by Celltiter Glo luminescent cell viability assay. The class given is functional, cell-based. As to conditions: MOLM-13, 72 h.
For the next assay, the system named is GES1. Description: Anticancer activity against human GES1 cells assessed as inhibition of cell growth incubated for 72 hrs by cell viability assay. The class given is functional, cell-based.

Take `CC1(C)CCN(Cc2cc(F)c(N3CC(=O)NC4(CCN(c5cc(NCCCCCCCC(=O)N6CCN(c7ccc8c(c7)C(=O)N(C7CCC(=O)NC7=O)C8=O)CC6)ncn5)CC4)C3)cc2F)CC1` (configuration not stated): the Activity in assay [1] is 29%; in assay [2], 33%.

With `CNc1cc(N2CCC3(CC2)CN(c2cc(F)c(CN4CCC(C)(C)CC4)cc2F)CC(=O)N3)ncn1`, the result with AGS, in the assay with SNU-484 and in the assay with GES1 was inactive. In the assay on MOLM-13, the pIC50 was 5.21.

Take `CC1(C)CCN(Cc2cc(F)c(N3CC(=O)NC4(CCN(c5cc(NCCCCCCCCCCC(=O)N6CCN(c7ccc8c(c7)C(=O)N(C7CCC(=O)NC7=O)C8=O)CC6)ncn5)CC4)C3)cc2F)CC1` (configuration not stated): the Activity is 22% in assay [1] and 9% in assay [2].

As for `O=C(NCc1cn2cc(CNCC3CCCCC3)ccc2n1)c1cc(=O)n2ccccc2n1`, the result in the assay on AGS, with SNU-484 and in the assay on GES1 was inactive. Also, the pIC50 with MOLM-13 is 5.26.
